Results reported in patent US20190255199A1, “NON-INVASIVE DIAGNOSTIC IMAGING AGENT FOR HEART DISEASE” (Nihon Medi-Physics Co., Ltd., priority 2016, published 2019).

Key:
[1] = test system: heart tissue section of an ischemic heart disease model rat; assay: In vitro autoradiography using ischemic heart disease model rat (Example 3); type: binding; conditions: for accumulation in the presence of an excessive amount of non-labeled compound (binding specificity): 5 μmol/L non-labeled compound (Compound 1 or Compound 2) added, FIG. 4(e)-(h) / FIG. 5(c),(d); for ratio of ischemia reperfusion site signal intensity/non-ischemic site signal intensity: ROI on autoradiograms, n=4, FIG. 7; for accumulation in lesion region on in vitro autoradiogram: sections immersed in labeled compound solution 30 minutes at room temperature, FIG. 4 / FIG. 5
Experimental: (§1) The chest of each Wistar rat (male) was opened under isoflurane anesthesia, and the left coronary artery was ligated for 30 minutes, followed by reperfusion. The chest was closed to prepare an ischemic heart disease model rat. Approximately 1 week after the operation, the rat was sacrificed under anesthesia, and the heart was taken out thereof. Sections of 5 μm in thickness were prepared from the base side of the heart. Immunostaining was carried out using the prepared sections to confirm the expression and distribution of CPY11B2. As an anti-CYP11B2 antibody, one prepared according to the method described in Ogishima T et al., Endocrinology, 1992, vol. 130, pp. 2971-7 was used. As a secondary antibody, HRP Labelled Polymer Anti-Rabbit (manufactured by Dako/Agilent Technologies, Inc.) was used. CYP11B2 expression sites were detected by applying DAB+(3,3′-diaminobenzidine tetrahydrochloride) substrate kit (manufactured by Dako/Agilent Technologies, Inc.) to the HRP bound to the secondary antibody.
Each ischemic heart disease model rat was prepared in the same way as in Example 1. The rat was sacrificed under isoflurane anesthesia between 1 and 3 weeks after the operation. Then, the heart was harvested, and 5 μm sections were prepared and preserved at −80° C. until they were used. The sections were brought back to room temperature from −80° C., dried for 30 minutes or longer, then immersed in phosphate-buffered saline for 30 minutes, and subsequently immersed in phosphate-buffered saline containing 1 w/v % bovine serum albumin for 30 minutes for hydrophilization. Each phosphate-buffered saline containing 1 w/v % bovine serum albumin and further containing Compound [^18F] 1 (radioactivity concentration: approximately 40 kBq/mL) or Compound [^123I] 2 (radioactivity concentration: approximately 10 kBq/mL) was prepared, and the hydrophilized sections were immersed therein at room temperature for 30 minutes. Then, the sections were washed by immersing for 5 minutes each in phosphate-buffered saline containing 1 w/v % bovine serum albumin, phosphate-buffered saline, and phosphate-buffered saline. The sections thus washed were thoroughly dried and then exposed to light for approximately 3 hours as to Compound [^18F] 1 and for approximately 16 hours as to Compound [^123I] 2 on an imaging plate (BAS-SR2040, manufactured by Fujifilm Corp.). Autoradiograms were obtained using a fluoro image analyzer (FLA-7000, manufactured by GE Healthcare Corp.).
Also, autoradiograms were obtained by immersing the sections in a solution containing Compound [^18F] 1 together with 5 μmol/L of Compound 1, or a solution containing Compound [^123I] 2 together with 5 μmol/L of Compound 2 in the same way as above.
The same experiment as above was conducted using the heart harvested from a normal rat.
ROI was established at an ischemia reperfusion site and a non-ischemic site as to the autoradiography of Compound [^18F] 1 and Compound [^123I] 2, and the ratio of signal intensity was compared between these sites. FIG. 7(a) is one example of an autoradiogram of the section immersed in Compound [^18F] 1. FIG. 7(c) is one example of an autoradiogram of the section immersed in Compound [^123I] 2. In both FIGS. 7(a) and 7(c), ROI of the ischemia reperfusion site is surrounded with the solid line, and ROI of the non-ischemic site is surrounded with the broken line. […] 1 in each rat. […] 2 in each rat. […] 1 and Compound [^123I] 2 at the ischemia reperfusion site compared with the non-ischemic site was observed. Higher accumulation of Compound [^123I] 2 than that of Compound [^18F] 1 was also observed.

[2] = test system: ischemic heart disease model rat; assay: Ex vivo autoradiography using ischemic heart disease model rat (Example 2); type: in vivo
Experimental: as §1
Each ischemic heart disease model rat was prepared in the same way as in Example 1. Compound [^18F] 1 was administered thereto (approximately 50 MBq/rat) between 1 and 3 weeks after the operation. 20 minutes after the administration, the rat was sacrificed under anesthesia, and the heart was taken out thereof. […]

[3] = test system: ischemic heart disease model rat; assay: SPECT imaging experiment using ischemic heart disease model rat (Example 5); type: in vivo; conditions: approximately 100 MBq/rat, one week after operation, static imaging started 150 minutes after administration, FIG. 9(d)-(f)
Experimental: as §1
Each ischemic heart disease model rat was prepared in the same way as in Example 1. Compound [^123I] 2 was administered thereto (approximately 100 MBq/rat) in one week after the operation. Static imaging for approximately 8 minutes was started at 150 minutes after the administration using a SPECT apparatus for animals (FX3000, manufactured by TriFoil Imaging). […]

normal rat = assay: SPECT imaging experiment using normal rat (Example 5); type: in vivo; conditions: approximately 100 MBq/rat, imaging started 150 minutes after administration, FIG. 9(a)-(c)
Experimental: Each ischemic heart disease model rat was prepared in the same way as in Example 1. Compound [^123I] 2 was administered thereto (approximately 100 MBq/rat) in one week after the operation. Static imaging for approximately 8 minutes was started at 150 minutes after the administration using a SPECT apparatus for animals (FX3000, manufactured by TriFoil Imaging). Data collection was carried out in an energy window of 143 to 175 keV, and the collected data was reconstituted by OSEM (Ordered Subset Expectation Maximization) to obtain images. Computed tomography imaging was carried out in order to identify the position of the heart. The same experiment as above was conducted using a normal rat.

[4] = test system: heart tissue section of an ischemic heart disease model rat; assay: Influence of elapsed time after ischemic heart disease model rat preparation on compound accumulation, in vitro autoradiography (Example 4); type: binding; conditions: normal rat and 1 day, 3 days, 1 week after the operation, FIG. 8(a)
Experimental: as §1
(§2) Each ischemic heart disease model rat was prepared in the same way as in Example 1. The rat was sacrificed under isoflurane anesthesia 1 day (3 rats), 3 days (4 rats) or 1 week (4 rats) after the operation. […] 2 (radioactivity concentration: approximately 10 kBq/mL) was prepared, and the hydrophilized sections were immersed therein at room temperature for 30 minutes. […]

[5] = test system: heart tissue section of a myocarditis model rat; assay: In vitro autoradiography using myocarditis model rat (Example 7); type: binding
[6] = test system: heart tissue section of an ischemic heart disease model rat; assay: In vitro autoradiography using ischemic heart disease model rat (Example 10); type: binding; conditions: ischemic heart disease model rat one week after operation, approximately 10 kBq/mL, FIG. 14
Experimental: as §1
as §2, with “in one” for “1 day (3 rats), 3 days (4 rats) or 1”, “week” for “week (4 rats)”, “3” for “2”

[7] = test system: heart tissue section of a hypertensive heart disease model rat; assay: In vitro autoradiography using hypertensive heart disease model rat (Example 9); type: binding
Experimental: Each DIS/Eis (Dahl-Iwai S) rat (male, Japan SLC, Inc.) was fed with 8% NaCl diet (Oriental Yeast Co., Ltd.) from the age of 5 weeks, raised up to the age of 11 weeks, and then sacrificed under anesthesia, and the heart was taken out thereof. Sections of 5 μm in thickness were prepared. Immunostaining was carried out using the prepared sections to confirm the expression and distribution of CPY11B2. As an anti-CYP11B2 antibody, one prepared according to the method described in Ogishima T et al., Endocrinology, 1992, vol. 130, pp. 2971-7 was used. As a secondary antibody, HRP Labelled Polymer Anti-Rabbit (manufactured by Dako/Agilent Technologies, Inc.) was used. CYP11B2 expression sites were detected by applying DAB+(3,3′-diaminobenzidine tetrahydrochloride) substrate kit (manufactured by Dako/Agilent Technologies, Inc.) to the HRP bound to the secondary antibody. The same experiment as above was conducted using the heart harvested from a DIS/Eis rat raised with a NaCl-free diet (normal rat).
Each hypertensive heart disease model rat was prepared in the same way as in Example 8. The heart was harvested, and 5 μm-thick sections were prepared and preserved at −80° C. until they were used. […] 3 (radioactivity concentration: approximately 10 kBq/mL) was prepared, and the hydrophilized sections were immersed therein at room temperature for 30 minutes. […]

Row | SMILES | accumulation in the presence of an excessive amount of non-labeled compound (binding specificity) [1] | ratio of ischemia reperfusion site signal intensity/non-ischemic site signal intensity [1] | accumulation in lesion region on in vitro autoradiogram [1] | staining findings at the position corresponding to the accumulation site ([2]; HE, Masson trichrome and CYP11B2 immunostaining of adjacent section, FIG. 3) | accumulation in the heart on ex vivo autoradiogram ([2]; approximately 50 MBq/rat, 1 to 3 weeks after operation, heart taken 20 minutes after administration, FIG. 2) | accumulation in the heart on SPECT image [3] | agreement of accumulation with fibrosis region ([1]; Masson trichrome staining of the same section, FIG. 6) | accumulation compared between the two labeled compounds ([1]; signal intensity ratio, FIG. 7(b) versus 7(d)) | accumulation in the heart on SPECT image (normal rat) | ratio of ischemia reperfusion site signal intensity/non-ischemic site signal intensity with elapsed time [4] | agreement of accumulation with fibrosis region ([5]; Masson trichrome staining of adjacent section, FIG. 11) | accumulation in heart tissue section compared with normal rat ([5]; approximately 10 kBq/mL, FIG. 11(a),(b)) | accumulation in lesion region compared with normal rat [6] | agreement of accumulation with fibrosis region ([7]; Masson trichrome staining of adjacent section, FIG. 13) | accumulation in heart tissue section compared with normal rat ([7]; approximately 10 kBq/mL, FIG. 13(a),(b))
1 | Fc1cc2nc(-c3cncc(Cn4ccnc4)c3)n(CC[18F])c2cc1Cl [Compound [^18F] 1, 6-chloro-5-fluoro-1-(2-[^18F]fluoroethyl)-2-[5-(imidazol-1-ylmethyl)pyridin-3-yl]benzimidazole] | inhibited by the addition of an excessive amount of a non-labeled compound, suggesting that the binding is specific | increased accumulation | accumulation of Compound [^18F] 1 in a lesion region was confirmed | inflammatory reaction, fibrosis, and CYP11B2 expression were also confirmed at a position corresponding to the accumulation site | local accumulation of Compound [^18F] 1 was confirmed |  |  |  |  |  |  |  |  |  | 
2 | FCCn1c(-c2cncc(Cn3ccnc3)c2)nc2ccc([123I])cc21 [Compound [^123I] 2, 1-(2-fluoroethyl)-2-[5-{(imidazol-1-yl)methyl}pyridin-3-yl]-6-[^123I]iodobenzimidazole] | inhibited by the addition of an excessive amount of a non-labeled compound, suggesting that the binding is specific | increased accumulation | accumulation of Compound [^123I] 2 in a lesion region was confirmed |  |  | confirmed in the heart of the ischemic heart disease model rat | in good agreement with a fibrosis region | Higher accumulation of Compound [^123I] 2 than that of Compound [^18F] 1 | not observed in the heart of the normal rat | increased with elapsed time after the operation |  |  |  |  | 
3 | Cn1c(-c2cncc(Cn3ccnc3)c2)nc2ccc([123I])cc21 [Compound [^123I] 3, 2-[5-{(1H-imidazol-1-yl)methyl}pyridin-3-yl]-6-[^123I]iodo-1-methyl-1H-benz[d]imidazole] |  |  |  |  |  |  |  |  |  |  | in good agreement with a fibrosis region | increased accumulation | increased accumulation | in good agreement with a fibrosis region | increased accumulation
